From patent US8324151B2, “Treatment of sepsis and septic shock using ghrelin and growth hormone” (The Feinstein Institute for Medical Research, priority 2007, dated 2012)
Ends that are not written are not given here. * marks the point of attachment. Octanoyl = CCCCCCCC(=O)*

How the values were obtained:
[1] = system: rats exposed to whole body irradiation followed by CLP; test: Radiation combined injury (RCI): 5-Gy whole body irradiation followed by CLP; format: in vivo, rat
Protocol: Rats were exposed to 5-Gy whole body irradiation followed by cecal ligation and puncture (CLP) 48 h thereafter. Human ghrelin (30 nmol) or vehicle (saline) was infused for 68 h after radiation exposure. At 20 h post-CLP, circulating tissue injury markers were measured. A 10-day survival study was also performed.

[2] = system: 24-month-old (aged) rats with LPS injection; test: LPS-induced endotoxemia in aged rats treated with GH with or without ghrelin; format: in vivo, rat; details: 4 h after LPS 15 mg/kg BW, ghrelin 20 nmol/kg BW and/or GH 25 μg/kg BW bolus 30 min prior to LPS
Protocol: To determine whether GH sensitizes Ghrelin's anti-inflammatory effects, GH was administered (25 μg/kg BW, a bolus at 30 min prior to LPS injection) with or without ghrelin (20 nmol/kg BW, a bolus at 30 min prior to LPS injection) in 24-month-old (aged) rats with LPS injection (15 mg/kg BW). […] Similarly, organ injury indicators such as AST and ALT were attenuated only following co-administration of ghrelin and GH after LPS injection in aged animals (FIG. 9C-D).

brain ghrelin receptor = test: Effect of GH on central ghrelin receptor expression and parasympathetic neuronal activity; format: in vivo; details: no data given
[3] = system: male 3-month-old (young) rats subjected to sepsis by CLP; details: sepsis in young animals; Wu et al., 2004; cited from earlier work
[4] = system: young rats with LPS injection; test: ICV administration of ghrelin prior to IV LPS injection (endotoxemia); details: ghrelin 3 nmol/kg BW ICV 30 min prior to IV LPS 15 mg/kg BW; 1 h after LPS
[5] = system: male 3-month-old (young) rats subjected to sepsis by CLP; format: in vivo
Protocol: Protective effects of ghrelin in young septic animals: This study was designed to determine whether ghrelin by itself can attenuate sepsis-induced inflammatory responses, cardiovascular responses, tissue injury, and mortality in young animals. To study this, male 3-month-old (young) rats were subjected to sepsis by CLP. At 5 h after CLP, a bolus IV injection of ghrelin (6 nmol/kg BW) was followed by a continuous infusion of ghrelin (40 nmol/kg BW) via a primed 200-μl Alzet mini-pump for 15 h. 20 h after CLP (i.e., severe sepsis), plasma levels of TNF-α, IL-6, and HMGB-1 were determined. Cardiac output (CO), stoke volume (SV), total peripheral resistance (TPR), and organ blood flow (BF) were measured using radioactive microspheres. Moreover, tissue injury indicators such as plasma levels of lactate and creatinine, as well as lung water content (edema) were determined. In additional groups of animals, the necrotic cecum was excised at 20 h after CLP, and a 10-day survival was recorded. […] Thus, ghrelin may provide a novel approach for anti-sepsis therapy in the young population. […] This also confirms that ghrelin can cross the blood-brain barrier to produce its beneficial effect centrally, thus reducing proinflammatory cytokines in sepsis. […] Plasma levels of TNF-α were measured at 1 h after LPS injection. […] However, due to the presence of central ghrelin hyporesponsiveness in aged animals, it is most likely that treatment with ghrelin alone will not produce desirable beneficial results in the geriatric population.

[6] = 20 h after CLP, ghrelin 6 nmol/kg BW IV bolus at 5 h + 40 nmol/kg BW infusion for 15 h
[7] = 20 h after CLP, radioactive microspheres
[8] = plasma, 20 h post-CLP, human ghrelin 30 nmol infused for 68 h after radiation, Mean ± SE, n = 4-6/group

Human ghrelin: Human ghrelin; preferably GSSFLSPEHQRVQQRKESKKPPAKLQPR, S at position 3 n-octanoylated serine (SEQ ID NO:1) (GSS(Octanoyl)FLSPEHQRVQQRKESKKPPAKLQPR; listed as Homo sapiens)
survival ([1]; 10-day survival after RCI, vehicle 38%): 69%
decrease of the elevated injury markers in plasma ([1]; vs. RCI + vehicle, 20 h post-CLP): 41-59%

GH: Growth hormone; a ghrelin-sensitizing agent; preferred human forms SEQ ID NO:2-4
plasma levels of IL-6 [2]: neither ghrelin nor GH alone significantly decreased
plasma levels of TNF-α [2]: neither ghrelin nor GH alone significantly decreased
brain ghrelin receptor expression (brain ghrelin receptor; aged animals (heading of b67)): increases
parasympathetic neuronal activity (brain ghrelin receptor): increases

ghrelin: Endogenous ligand for the growth hormone secretagogue receptor; species form used in the LPS and CLP studies not stated (GSSFLSPEHQRVQQRKESKKPPAKLQPR; ends and bridges not checked; UniProt Q9UBU3 24-51, looked up)
plasma levels of IL-6 [2]: neither ghrelin nor GH alone significantly decreased
plasma levels of TNF-α [2]: neither ghrelin nor GH alone significantly decreased
circulating proinflammatory cytokines such as TNF-α and IL-6 [3]: significantly decreases
reduction of serum levels of TNF-α [4]: 65%
survival of septic animals ([5]; 10-day survival, necrotic cecum excised at 20 h after CLP, control 35%, n=20/group): 65%
lung edema (lung water content) ([5]; 20 h after CLP): decreased
plasma creatinine ([5]; 20 h after CLP): decreased
plasma lactate ([5]; 20 h after CLP): decreased
cytokine levels in peritoneal fluid ([5]; 20 h after CLP, data not shown): markedly reduced
plasma levels of HMGB-1 [5, 6]: significantly reduced
plasma levels of IL-6 [5, 6]: significantly reduced
plasma levels of TNF-α [5, 6]: significantly reduced
cardiac output (CO) [5, 7]: increased
organ blood flow in the gut [5, 7]: increased
organ blood flow in the kidneys [5, 7]: increased
organ blood flow in the liver [5, 7]: increased
stroke volume (SV) [5, 7]: increased
total peripheral resistance (TPR) [5, 7]: reduced
brain ghrelin levels ([5]; rat, in vivo, iv): restored the reduced brain ghrelin levels
Gut MPO ([1]; 20 h post-CLP, human ghrelin 30 nmol infused for 68 h after radiation, Mean ± SE, n = 4-6/group): 14.0 ± 1.1 μU/mg
ALT [1, 8]: 42.3 ± 5.4 IU/L
AST [1, 8]: 70.7 ± 70.3 IU/L
Creatinine [1, 8]: 1.60 ± 0.20 mg/dL
IL-6 [1, 8]: 817 ± 88 pg/mL
LDH [1, 8]: 1098 ± 88 U/L
Lactate [1, 8]: 19.4 ± 0.8 mg/dL
TNF-α [1, 8]: 41.8 ± 8.5 pg/mL
